Source: patent publication US20190187129A1, “CANCER MODELING PLATFORMS AND METHODS OF USING THE SAME” (Wake Forest University Health Sciences, priority 2016, published 2019)
Entries after “also recorded” stand apart in the source; their conditions may differ.

Experiments:
SW480 cells = test: 2D drug screen, MTS assay; format: cell-based; conditions: Homo sapiens, read-out: relative cellular viability (MTS, relative to control)
Procedure: Cancer cells seeded directly into wells were given 4-5 hours to reattach to the bottom of the wells. After that time, the anticancer drug solutions were administered in place of the media (FIG. 6, panel A) and an MTS assay was carried out 2 days later to determine cell viability. […] At 100 μM concentrations of Regorafenib and Sorafenib, and 100 mM concentrations of 5-FU, cellular viability remained below 20% that of the control for all four of the colorectal cancer cell lines utilized. However, screening with Dabrafenib and Trametinib produced diverging results from the other three anticancer drugs at higher concentrations. […] When treated with 1 mM concentrations of 5-FU, relative cellular viability was approximately 39% for SW480 cells and remained between 10%-22% for the HCT116, HT29, and CACO2 cells. These values were considerably lower than the relative cellular viability values for the lowest concentrations of the other anticancer drugs.
Cell Seeding: The original 15 mL centrifuge tubes containing the 10 mL of DMEM-10, cells, and trypsin were placed into a centrifuge. The centrifugation setting was 1500 RPM and at maximal acceleration for 5 minutes. After that time, the media and trypsin mixture was aspirated from the tubes, leaving the cell pellets still intact. 5 mL of DMEM-10 was then pipetted into each of the tubes, resuspending the cells in the process. Calculated volumes of the 5 mL cell-media solution were determined to ensure that 25,000 cells of each of the four colorectal cancer cell lines were seeded directly into each of the wells of a polystyrene clear-bottom 96-well plate. 100 μL of DMEM-10 media was then pipetted directly into the wells. The 96-well plates were incubated at 37° C. and 5% CO2 for 5 hours to allow the cells to reattach themselves to the bottom of the wells until media was aspirated and anticancer drug solutions were added.
Addition of Anticancer Drugs for Screening: The anticolorectal cancer drugs used in this screening included 5-FU, Regorafenib, Sorafenib, Trametinib, and Dabrafenib (Sigma-Aldrich, Missouri, USA)). High concentration drug stock solutions were created with DMSO. Lower concentration drug solutions were created by mixing the anticancer drug stocks with DMEM-10 media. […] drug solutions were generated for 5-FU; 1 μM, 10 μM, and 100 μM drug solutions were generated for Regorafenib, Sorafenib, and Dabrafenib; and 1 nM, 10 nM, and 100 nM drug solutions were generated for Trametinib. Media was carefully aspirated from the wells and 200 μL of the various drug-media solutions were placed into the wells containing cells. Three duplicates were generated for each anticancer drug concentration with each of the different cell types to calculate averages and run statistics on the data generated. Well plates were then incubated at 37° C. and 5% CO2 for […].
Cell viability assay: Cell viability was determined 48 hours after exposure to the anticancer drug solutions. The viability of the cells was examined by the CellTiter 96® AQueous One Solution Cell Proliferation (MTS) assay (Promega, Wisconsin, USA). The anticancer drug-media solutions were aspirated from the wells and 200 μL of the MTS reagent was carefully pipetted into the wells. The incubation time for the cells with the MTS reagent was approximately 45 minutes. The cell viability assay was performed on another 96-well plate and the absorbance was quantified by the EnVision Multilabel Plate Reader (PerkinElmer, California, USA).

[1] = tested on: HCT116-CACO2 ringed constructs; test: Ringed organoid drug screening, live-dead stain; format: cell-based; conditions: for % dead: % live ratio: drug day 5, stain day 7; for cell type targeted in ringed construct (live-dead images): inner HCT116 versus outer CACO2, day 7
Procedure: Polydimethylsiloxane, or PDMS, was again used to coat the bottom of the wells. HCT116 cells were embedded within hyaluronan hydrogel and constructs were created on the PDMS surface. CACO2 cells that were also embedded within hyaluronan gel were used to create the outer ring around the HCT116 inner-ring construct (FIG. 9, panel A).
A live-dead stain was carried out on the ringed-constructs on day 7 and imaged on an Axiovert microscope (FIG. 9, panel B). The imaging software, MATLAB, was used to generate a % dead: % live ratio (or % red (medium grey in black and white images): % green (light grey in black and white images)) for the ringed-constructs. The values were then graphed showing the ratios for each of the concentrations of Regorafenib and 5-FU and against the control, untreated ratio (FIG. 9, panel C). At 100 μM, Regorafenib and 5-FU both have % dead: % live ratios of 0.98. This means that approximately half of the HCT116 and CACO2 cells are alive and half have been targeted by the anticancer drugs. When analyzing the relative cellular viability when the 1 μM and 10 μM concentrations of Regorafenib and 5-FU were administered, the % dead: % live ratios are much greater for the 5-FU solutions than for the Regorafenib solutions. At 1 μM, the % dead: % live ratio is 0.95 for 5-FU as opposed to 0.48 for Regorafenib, and at 10 μM, the % dead: % live ratio is 0.78 for 5-FU as opposed to 0.08 for Regorafenib. The % dead: % live ratios for the three concentrations of Regorafenib and 5-FU were substantially higher than the control % dead: % live ratio value of only 0.03.
Hydrogel Components of the Ringed Organoid Constructs: The hyaluronic acid-based hydrogel used in making the ringed organoids was a mixture of four components: Heprasil, Gelin-S, and PEGDA 2-ARM Acrylate crosslinker (Extralink), and Alkyne-PEG-Alkyne 2-ARM crosslinker (ESI BIO, California, USA). These components were mixed in a 4:4:1:1 ratio by volume. 0.1% Irgacure photoinitiator was added to each of the four components prior to their mixture and the […] were placed in a 37° C. incubator for a ˜30 minutes to solubilize. HCT116 and CACO2 cells were isolated in the passaging method previously mentioned and PDMS was used to coat the bottom of the 96-well plates.
Forming Ringed-Organoid Constructs: The four components of the hydrogel were added to the 15 mL centrifuge tube containing the HCT116 cell pellet and the cells were resuspended within the mixture. 10 μL of the HCT116 containing hydrogel were placed in the center of the wells and left untouched with aluminum foil covering the 96-well plates for ˜35 minutes. During this time, the PEGDA 2-ARM Acrylate will crosslink the gel, while the UV-sensitive 2-ARM Alkyne-PEG-Alkyne will remain uncrosslinked.
While waiting for the PEGDA to crosslink, add the four hydrogel components to the 15 mL centrifuge tube containing the isolated CACO2 cells and resuspend the cells within the gel. Remove the aluminum foil wrapping on the 96-well plate and inspect the construct to see if they have solidified yet. If so, take 25 μL of the CACO2-embedded-hydrogel and carefully place in the area around the HCT116 construct. Use the pipette tip to physically move the CACO2 gel around the construct on all sides. Use UV light from BlueWave 200 spot light to crosslink both gels together to form a fused, ringed-construct. Add DMEM-10 media to fill up the wells.
Anticancer Drug Screening: On day 5, 1 μM, 10 μM, and 100 μM drug solutions of 5-FU were added to ringed constructs and 1 μM, 10 μM, and 100 μM drug solutions of Regorafenib were added to separate ringed constructs. Three duplicates were generated for each of the drug concentrations and a no-drug control was maintained as well.
Live-Dead Staining and Microscopy: On day 7, the ringed-constructs underwent a Live-Dead stain and the construct were imaged on an Axiovert 200M 487-1 microscope (Carl Zeiss AG, Oberkochen, Germany). […]

Structure (SMILES)	viability at 100 µM (SW480 cells; 100 μM)	% dead: % live ratio ([1]; 1 μM)	% dead: % live ratio ([1]; 10 μM)	% dead: % live ratio ([1]; 100 μM)	cell type targeted in ringed construct (live-dead images) [1]	viability at 1000 µM (SW480 cells; 1 mM)	viability at 100000 µM (SW480 cells; 100 mM)
CNC(=O)c1cc(Oc2ccc(NC(=O)Nc3ccc(Cl)c(C(F)(F)F)c3)c(F)c2)ccn1 [Regorafenib]	< 20%	0.48	0.08	0.98	inner HCT116 cells were affected by Regorafenib to a greater extent than the CACO2 cells; also recorded: targeted cell death of HCT116		
O=c1[nH]cc(F)c(=O)[nH]1 [5-FU, 5-Fluorouracil]		0.95	0.78	0.98	targeting both cell types to similar degrees; also recorded: universal cell death of both HCT116 and CACO2	~39%	< 20%
